# pIC50, pKd: −log10 of the molar value.
# Tests used:
# [1] = target: T1, recombinant human FXR LBD (Homo sapiens, UniProt Q96RI1); assay: Isothermal titration calorimetry on FXR LBD; conditions: ITC, 25 °C, 1:1 binding assumed
# T1 construct: Recombinant FXR LBD for ITC experiments was obtained; His6-tag (TEV-cleavable) (cleaved yes); made in house; host or cells: E. coli BL21 (DE3)
# T1 sequence (Q96RI1 262-486 limits assumed): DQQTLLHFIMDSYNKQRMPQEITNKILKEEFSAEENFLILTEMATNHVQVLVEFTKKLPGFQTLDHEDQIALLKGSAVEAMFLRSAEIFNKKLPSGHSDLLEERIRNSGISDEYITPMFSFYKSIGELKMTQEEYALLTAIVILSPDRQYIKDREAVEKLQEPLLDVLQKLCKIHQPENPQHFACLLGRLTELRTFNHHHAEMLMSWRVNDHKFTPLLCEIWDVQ
# recombinant human sEH = target: T2, recombinant human sEH (Homo sapiens, UniProt P34913); assay: sEH activity assay with PHOME as fluorogenic substrate; format: biochemical; conditions: mean±S.E.M., n=3
# T2 construct: Human sEH full length protein was purified as described by Lukin et al; made in house; host or cells: E. coli BL21 (DE3)
# T2 sequence (P34913 1-555): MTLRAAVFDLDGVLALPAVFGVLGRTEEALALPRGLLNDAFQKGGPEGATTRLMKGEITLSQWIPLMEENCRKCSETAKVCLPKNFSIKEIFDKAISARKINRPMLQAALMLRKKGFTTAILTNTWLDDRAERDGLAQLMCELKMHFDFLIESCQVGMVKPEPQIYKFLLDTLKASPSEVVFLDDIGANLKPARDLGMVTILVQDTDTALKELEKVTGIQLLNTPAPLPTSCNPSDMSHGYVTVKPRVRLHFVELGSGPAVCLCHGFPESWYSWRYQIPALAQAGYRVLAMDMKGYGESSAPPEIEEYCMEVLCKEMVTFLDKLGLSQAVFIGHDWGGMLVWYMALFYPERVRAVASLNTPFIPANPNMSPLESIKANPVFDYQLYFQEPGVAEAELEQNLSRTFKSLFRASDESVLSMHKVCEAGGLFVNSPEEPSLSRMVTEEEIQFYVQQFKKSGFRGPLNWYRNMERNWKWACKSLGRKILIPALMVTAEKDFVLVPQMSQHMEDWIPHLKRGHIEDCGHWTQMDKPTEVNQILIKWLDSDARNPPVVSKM
# [2] = tested on: related nuclear receptors (RAR, PPAR, LXR, VDR, CAR, RXR); assay: Gal4 hybrid reporter gene assays, selectivity over related nuclear receptors (HEK293T); format: cell-based, human; conditions: heatmap of mean relative activation, n=2
# Description: Isothermal titration calorimetry (ITC) confirmed binding of 8 and 19 to the recombinant proteins of both FXR LBD and LTA4H (Figure 1).
# Figure 2 (a) Selectivity profiles of 8 and 19 over related nuclear receptors. […] (b) Activity of 8 and 19 in a WST‐1 cell viability assay in HepG2 cells. Data are mean±S.E.M., n=4. […] Data are mean±S.E.M. relative FXR activation (%), n≥3. […] Data are mean±S.E.M. relative LTA4H inhibition (%), n=3.
# Hybrid reporter gene assays. Nuclear receptor modulation was determined in hybrid reporter gene assays using the Gal4‐fusion receptor plasmids pFA‐CMV‐hPPARα‐LBD,[39] pFA‐CMV‐hPPARγLBD,[39] pFA‐CMV‐hPPARδ‐LBD,[39] pFA‐CMV‐hLXRα‐LBD,[40] pFACMV‐hLXRβ‐LBD,[40] pFA‐CMV‐hRXRα‐LBD,[41] pFA‐CMV‐hRARα‐LBD,[41] pFA‐CMV‐hVDR‐LBD[41] and pFA‐CMV‐hCAR‐LBD[41] coding for the hinge region and ligand binding domain (LBD) of the canonical isoform of the respective nuclear receptor, pFR‐Luc (Stratagene) as reporter plasmid and pRL‐SV40 (Promega) for normalization of transfection eﬃciency. HEK293T cells were grown in DMEM high glucose, supplemented with 10 % FCS, sodium pyruvate (1 mM), penicillin (100 U/mL), and streptomycin (100 μg/mL) at 37 °C and 5 % CO2, and seeded in 96‐well plates (2.5 ⋅ 10^4 cells/well) the day before transfection. […] Luminescence was measured with an Infinite M200 luminometer (Tecan Deutschland GmbH, Germany). […]
# HepG2 cells = assay: WST-1 cell viability assay; format: cell-based; conditions: up to 100 μM, 48 h
pKd [1],sEH inhibition (recombinant human sEH; at 100 μM) [% inhibition at 100 μM],selectivity over related nuclear receptors [2],pIC50 (recombinant human sEH; read-out: sEH inhibition IC50),SMILES,cytotoxic / anti-proliferative effect in WST-1 assay (HepG2 cells)
~5.15,6±1,favorable selectivity,–,O=C(O)c1cccc(NC(=O)c2ccc(OCCCc3ccccc3)cc2)c1 [compound 8],slight anti‐proliferative activity at high concentration
~5.52,–,favorable selectivity,4.17,"O=C(O)c1ccnc(NC(=O)c2ccc(OCCCc3ccccc3)cc2)c1 [compound 19, 2‐(4‐(3‐Phenylpropoxy)benzamido)isonicotinic acid]",no cytotoxic effects
